From paper PMC10136147, “Bacillus subtilis YtpP and Thioredoxin A Are New Players in the Coenzyme-A-Mediated Defense Mechanism against Cellular Stress” (Antioxidants, 2023)

Assays:
[1] = target: T1, TrxA (Bacillus subtilis, UniProt P14949); assay: HPLC ([…] nm) of released CoA; anti-CoA Western blot; assay type: biochemical; details: CoA released from 6 uM CoA-MsrA or CoA-PRDX5 by 60 uM enzyme, 1 h, 37 C
T1 construct: about 11 kDa, N-terminal 6xHis tag (pET28a), E. coli BLR(DE3)
T1 sequence (P14949 1-104): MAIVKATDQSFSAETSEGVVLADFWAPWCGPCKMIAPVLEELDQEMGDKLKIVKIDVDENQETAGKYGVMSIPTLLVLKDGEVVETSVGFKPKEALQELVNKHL

[2] = target: T2, PRDX5 (Homo sapiens, UniProt P30044); assay: anti-CoA Western blot after in vitro CoAlation; assay type: binding; details: covalent mixed disulfide with cysteine; protein:CoA:H2O2 1:3:10, RT, 30 min; monomer and oligomer bands
T2 sequence (P30044 54-214): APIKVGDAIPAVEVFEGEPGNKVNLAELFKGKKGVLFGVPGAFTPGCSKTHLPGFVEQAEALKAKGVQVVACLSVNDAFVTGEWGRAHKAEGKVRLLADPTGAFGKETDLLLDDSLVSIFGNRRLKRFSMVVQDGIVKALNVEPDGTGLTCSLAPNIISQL

[3] = target: T3, YtpP (Bacillus subtilis, UniProt O34357); assay: HPLC ([…] nm) of released CoA; anti-CoA Western blot; assay type: biochemical; details: CoA released from 6 uM CoA-MsrA or CoA-PRDX5 by 60 uM enzyme, 1 h, 37 C
T3 sequence (O34357 1-107): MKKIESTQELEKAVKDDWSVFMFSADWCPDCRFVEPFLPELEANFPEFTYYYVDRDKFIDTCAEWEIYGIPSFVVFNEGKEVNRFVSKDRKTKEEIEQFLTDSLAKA

[4] = target: YtpP (Bacillus subtilis, UniProt O34357, C28S); assay: anti-CoA Western blot after incubation with CoAlated protein; assay type: binding; details: covalent; CoA transferred from the CoAlated protein, 30 min, 37 C
[5] = target: T4, MsrA (Corynebacterium diphtheriae, UniProt Q6NEL2); assay: anti-CoA Western blot after in vitro CoAlation; assay type: binding; details: covalent mixed disulfide with cysteine; protein:CoA:H2O2 1:3:10, RT, 30 min; monomer and oligomer bands
T4 construct: 26 kDa
T4 sequence (Q6NEL2 1-220): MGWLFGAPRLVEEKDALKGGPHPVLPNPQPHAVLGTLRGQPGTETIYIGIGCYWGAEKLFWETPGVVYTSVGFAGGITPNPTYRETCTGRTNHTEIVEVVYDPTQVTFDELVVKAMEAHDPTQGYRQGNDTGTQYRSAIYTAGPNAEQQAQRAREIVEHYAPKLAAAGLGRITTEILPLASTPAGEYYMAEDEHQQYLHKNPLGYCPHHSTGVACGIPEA

[6] = target: T5, GAPDH (Staphylococcus aureus, UniProt Q6GIL8); assay: anti-CoA ELISA and Western blot after in vitro CoAlation; assay type: binding; details: covalent mixed disulfide with cysteine; protein:CoA:H2O2 1:3:10, RT, 30 min; reversed by 10 mM DTT
T5 construct: gene gapA1
T5 sequence (Q6GIL8 1-336): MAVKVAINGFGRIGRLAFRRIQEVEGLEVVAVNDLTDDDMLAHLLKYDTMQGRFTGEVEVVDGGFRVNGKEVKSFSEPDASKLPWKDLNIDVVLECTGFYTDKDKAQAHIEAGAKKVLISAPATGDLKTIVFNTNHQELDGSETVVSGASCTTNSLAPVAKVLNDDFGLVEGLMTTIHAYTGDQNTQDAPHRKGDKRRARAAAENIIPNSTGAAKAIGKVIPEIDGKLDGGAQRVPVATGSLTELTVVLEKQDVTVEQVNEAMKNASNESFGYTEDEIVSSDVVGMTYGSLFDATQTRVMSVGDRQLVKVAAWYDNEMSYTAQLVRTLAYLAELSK

Chain of YtpP (Bacillus subtilis, UniProt O34357, C28S) (O34357 whole entry C28S): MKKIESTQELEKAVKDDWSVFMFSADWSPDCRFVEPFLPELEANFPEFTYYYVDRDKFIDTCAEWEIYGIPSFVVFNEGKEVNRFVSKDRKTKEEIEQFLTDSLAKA

CC(C)(COP(=O)(O)OP(=O)(O)OC[C@H]1O[C@@H](n2cnc3c(N)ncnc32)[C@H](O)[C@@H]1OP(=O)(O)O)[C@@H](O)C(=O)NCCC(=O)NCCS [CoA]
HPLC (254 nm) of released CoA; anti-CoA Western blot [1]: Following deCoAlation of both substrates by YtpP and TrxA, CoA release was monitored.
anti-CoA Western blot after in vitro CoAlation [2]: anti-CoA WB was used to confirm the CoAlation of both proteins
HPLC (254 nm) of released CoA; anti-CoA Western blot [3]: Following deCoAlation of both substrates by YtpP and TrxA, CoA release was monitored.
anti-CoA Western blot after incubation with CoAlated protein [4]: “Δ” represents either CoAlated YtpP C28S or YtpP C31S, or CoAlated TrxA C29S
anti-CoA Western blot after in vitro CoAlation [5]: anti-CoA WB was used to confirm the CoAlation of both proteins
anti-CoA ELISA and Western blot after in vitro CoAlation [6]: high signal was recorded due to the detection of CoA on the CoAlated protein
